Data published in PubChem BioAssay (NCI).
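Tested at 5 concentrations; 48 h exposure; 96-well plates; endpoints linearly interpolated, else capped at highest concentration. Abbreviation: GI50, concentration required for 50% inhibition of growth. TGI marks complete inhibition of growth.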

Assays:
Assay in all cases: DTP human tumour cell line panel, 48 h; in the data active = GI50 below about 0.43 µM; inactive = the rest
SN12C renal = system: SN12C renal
OVCAR-5 ovarian = system: OVCAR-5 ovarian
UACC-257 melanoma = system: UACC-257 melanoma
SK-MEL-28 melanoma = system: SK-MEL-28 melanoma
ACHN renal = system: ACHN renal
PC-3 prostate = system: PC-3 prostate
OVCAR-8 ovarian = system: OVCAR-8 ovarian
NCI-H460 lung = system: NCI-H460 lung
MALME-3M melanoma = system: MALME-3M melanoma
A549 NSCLC = system: A549 NSCLC
786-0 renal = system: 786-0 renal
SK-MEL-5 melanoma = system: SK-MEL-5 melanoma
M14 melanoma = system: M14 melanoma
MDA-MB-435 = system: MDA-MB-435
CCRF-CEM leukemia = system: CCRF-CEM leukemia
SK-MEL-2 melanoma = system: SK-MEL-2 melanoma
SF-539 CNS = system: SF-539 CNS
MCF7 breast = system: MCF7 breast
HL-60(TB) leukemia = system: HL-60(TB) leukemia
UO-31 renal = system: UO-31 renal
SK-OV-3 ovarian = system: SK-OV-3 ovarian
SNB-19 CNS = system: SNB-19 CNS
K-562 leukemia = system: K-562 leukemia
LOX IMVI melanoma = system: LOX IMVI melanoma
NCI/ADR-RES ovarian = system: NCI/ADR-RES ovarian
RPMI-8226 leukemia = system: RPMI-8226 leukemia
MOLT-4 leukemia = system: MOLT-4 leukemia
SF-295 CNS = system: SF-295 CNS
UACC-62 melanoma = system: UACC-62 melanoma
SR leukemia = system: SR leukemia
SNB-75 CNS = system: SNB-75 CNS
NCI-H226 lung = system: NCI-H226 lung
BT-549 breast = system: BT-549 breast
IGROV1 ovarian = system: IGROV1 ovarian
TK-10 renal = system: TK-10 renal
HS 578T breast = system: HS 578T breast
EKVX NSCLC = system: EKVX NSCLC
RXF 393 renal = system: RXF 393 renal
HOP-62 NSCLC = system: HOP-62 NSCLC
KM12 colon = system: KM12 colon
U251 CNS = system: U251 CNS
HT29 colon = system: HT29 colon
HCC-2998 colon = system: HCC-2998 colon
NCI-H23 lung = system: NCI-H23 lung
OVCAR-4 ovarian = system: OVCAR-4 ovarian
SF-268 CNS = system: SF-268 CNS
HCT-15 colon = system: HCT-15 colon
SW-620 colon = system: SW-620 colon
OVCAR-3 ovarian = system: OVCAR-3 ovarian
HOP-92 NSCLC = system: HOP-92 NSCLC
HCT-116 colon = system: HCT-116 colon
NCI-H522 lung = system: NCI-H522 lung
CAKI-1 renal = system: CAKI-1 renal
MDA-MB-231 breast = system: MDA-MB-231 breast
COLO 205 colon = system: COLO 205 colon
DU-145 prostate = system: DU-145 prostate
T-47D breast = system: T-47D breast
A498 renal = system: A498 renal

CCc1nc(Cl)c(Cl)c(Cl)n1
> 100 µM: TGI (SN12C renal) | TGI (OVCAR-5 ovarian) | TGI (UACC-257 melanoma) | TGI (SK-MEL-28 melanoma) | TGI (ACHN renal) | TGI (PC-3 prostate) | TGI (OVCAR-8 ovarian) | TGI (NCI-H460 lung) | TGI (MALME-3M melanoma) | TGI (A549 NSCLC) | TGI (786-0 renal) | TGI (SK-MEL-5 melanoma) | TGI (M14 melanoma) | TGI (MDA-MB-435) | TGI (CCRF-CEM leukemia) | TGI (SK-MEL-2 melanoma) | TGI (SF-539 CNS) | TGI (MCF7 breast) | TGI (HL-60(TB) leukemia) | TGI (UO-31 renal) | TGI (SK-OV-3 ovarian) | TGI (SNB-19 CNS) | TGI (K-562 leukemia) | TGI (LOX IMVI melanoma) | TGI (NCI/ADR-RES ovarian) | TGI (RPMI-8226 leukemia) | TGI (MOLT-4 leukemia) | TGI (SF-295 CNS) | TGI (UACC-62 melanoma) | TGI (SR leukemia) | TGI (SNB-75 CNS) | TGI (NCI-H226 lung) | TGI (BT-549 breast) | TGI (IGROV1 ovarian) | TGI (TK-10 renal) | TGI (HS 578T breast) | TGI (EKVX NSCLC) | TGI (RXF 393 renal) | TGI (HOP-62 NSCLC) | TGI (KM12 colon) | TGI (U251 CNS) | TGI (HT29 colon) | TGI (HCC-2998 colon) | TGI (NCI-H23 lung) | TGI (OVCAR-4 ovarian) | TGI (SF-268 CNS) | TGI (HCT-15 colon) | TGI (SW-620 colon) | TGI (OVCAR-3 ovarian)

O=C(CBr)c1ccc2cc(Br)c3ccccc3c2c1
59.6 µM: TGI (HS 578T breast)
77.6 µM: TGI (K-562 leukemia)
49.9 µM: TGI (UACC-257 melanoma)
54.5 µM: TGI (EKVX NSCLC)
> 100 µM: TGI (ACHN renal) | TGI (786-0 renal) | TGI (CCRF-CEM leukemia) | TGI (HCT-116 colon) | TGI (LOX IMVI melanoma) | TGI (NCI/ADR-RES ovarian) | TGI (RPMI-8226 leukemia) | TGI (HOP-62 NSCLC) | TGI (U251 CNS) | TGI (HT29 colon) | TGI (HCC-2998 colon) | TGI (COLO 205 colon) | TGI (HCT-15 colon)
29.8 µM: TGI (UACC-62 melanoma)
35.3 µM: TGI (NCI-H23 lung)
53.1 µM: TGI (PC-3 prostate)
45.7 µM: TGI (HOP-92 NSCLC)
33.6 µM: TGI (NCI-H226 lung)
56.7 µM: TGI (SF-295 CNS)
72.8 µM: TGI (SNB-75 CNS)
46.4 µM: TGI (DU-145 prostate)
34 µM: TGI (BT-549 breast)
62.7 µM: TGI (UO-31 renal)
37 µM: TGI (MOLT-4 leukemia)
64.6 µM: TGI (SNB-19 CNS)
46.3 µM: TGI (SR leukemia)
62.4 µM: TGI (IGROV1 ovarian)
38.7 µM: TGI (RXF 393 renal)
44.1 µM: TGI (KM12 colon)
58.9 µM: TGI (OVCAR-4 ovarian)
74.4 µM: TGI (SW-620 colon)
47 µM: TGI (SF-268 CNS)
46.9 µM: TGI (OVCAR-3 ovarian)
69.6 µM: TGI (HL-60(TB) leukemia)
41.7 µM: TGI (SF-539 CNS)
84 µM: TGI (M14 melanoma)
54.4 µM: TGI (NCI-H460 lung)
55.8 µM: TGI (OVCAR-8 ovarian)
34.4 µM: TGI (MALME-3M melanoma)
30.2 µM: TGI (SK-MEL-5 melanoma)
45.1 µM: TGI (SK-MEL-2 melanoma)
37.6 µM: TGI (NCI-H522 lung)
57.9 µM: TGI (OVCAR-5 ovarian)
73.8 µM: TGI (MCF7 breast)
38 µM: TGI (CAKI-1 renal)
42.6 µM: TGI (MDA-MB-435)
51.2 µM: TGI (MDA-MB-231 breast)
76.7 µM: TGI (A549 NSCLC)
57.5 µM: TGI (SK-MEL-28 melanoma)
36.9 µM: TGI (TK-10 renal)

CCOC(=O)c1sc(NC(=O)COc2cccc(/C=C3\CCc4cc(OC)ccc4C3=O)c2)nc1C
13.3 µM: TGI (SK-MEL-5 melanoma) | TGI (SW-620 colon)
3.81 µM: TGI (DU-145 prostate)
6.71 µM: TGI (OVCAR-3 ovarian)
49.7 µM: TGI (HS 578T breast)
> 100 µM: TGI (SN12C renal) | TGI (OVCAR-5 ovarian) | TGI (UACC-257 melanoma) | TGI (SK-MEL-28 melanoma) | TGI (ACHN renal) | TGI (MALME-3M melanoma) | TGI (A549 NSCLC) | TGI (786-0 renal) | TGI (M14 melanoma) | TGI (MDA-MB-435) | TGI (SK-MEL-2 melanoma) | TGI (MCF7 breast) | TGI (UO-31 renal) | TGI (SK-OV-3 ovarian) | TGI (SNB-19 CNS) | TGI (HCT-116 colon) | TGI (T-47D breast) | TGI (NCI-H522 lung) | TGI (NCI/ADR-RES ovarian) | TGI (SF-295 CNS) | TGI (UACC-62 melanoma) | TGI (CAKI-1 renal) | TGI (MDA-MB-231 breast) | TGI (SNB-75 CNS) | TGI (NCI-H226 lung) | TGI (BT-549 breast) | TGI (TK-10 renal) | TGI (EKVX NSCLC) | TGI (HT29 colon) | TGI (NCI-H23 lung) | TGI (OVCAR-4 ovarian) | TGI (HCT-15 colon)
12.3 µM: TGI (SF-268 CNS)
5.12 µM: TGI (KM12 colon)
43.4 µM: TGI (COLO 205 colon)
25.3 µM: TGI (OVCAR-8 ovarian)
38.8 µM: TGI (HCC-2998 colon)
76.6 µM: TGI (A498 renal)
3.38 µM: TGI (RPMI-8226 leukemia)
13.8 µM: TGI (NCI-H460 lung)
7.58 µM: TGI (SF-539 CNS)
15.7 µM: TGI (LOX IMVI melanoma)
21 µM: TGI (IGROV1 ovarian)
inactive: GI50 (SN12C renal) 3.89 µM | GI50 (OVCAR-5 ovarian) 13.5 µM | GI50 (UACC-257 melanoma) 9.79 µM | GI50 (SK-MEL-28 melanoma) 18.2 µM | GI50 (ACHN renal) 6 µM | GI50 (OVCAR-8 ovarian) 4.59 µM | GI50 (NCI-H460 lung) 3.19 µM | GI50 (MALME-3M melanoma) 47 µM | GI50 (A549 NSCLC) 34.7 µM | GI50 (786-0 renal) 17 µM | GI50 (SK-MEL-5 melanoma) 2.65 µM | GI50 (M14 melanoma) 7.95 µM | GI50 (MDA-MB-435) 2.25 µM | GI50 (CCRF-CEM leukemia) 1.26 µM | GI50 (SK-MEL-2 melanoma) 5.38 µM | GI50 (SF-539 CNS) 2.1 µM | GI50 (MCF7 breast) 3.03 µM | GI50 (HL-60(TB) leukemia) 1.94 µM | GI50 (UO-31 renal) 5.99 µM | GI50 (SK-OV-3 ovarian) 6.39 µM | GI50 (HOP-92 NSCLC) 16.9 µM | GI50 (SNB-19 CNS) 2.78 µM | GI50 (HCT-116 colon) 3.18 µM | GI50 (K-562 leukemia) 1.94 µM | GI50 (T-47D breast) 3.75 µM | GI50 (LOX IMVI melanoma) 3.87 µM | GI50 (NCI-H522 lung) 3.6 µM | GI50 (NCI/ADR-RES ovarian) 4.84 µM | GI50 (RPMI-8226 leukemia) 1.2 µM | GI50 (MOLT-4 leukemia) 2.94 µM | GI50 (SF-295 CNS) 5.45 µM | GI50 (UACC-62 melanoma) 5.43 µM | GI50 (CAKI-1 renal) 7.16 µM | GI50 (MDA-MB-231 breast) 10.1 µM | GI50 (SNB-75 CNS) 2.51 µM | GI50 (NCI-H226 lung) 28.3 µM | GI50 (BT-549 breast) 3.26 µM | GI50 (IGROV1 ovarian) 3.02 µM | GI50 (TK-10 renal) 21.7 µM | GI50 (HS 578T breast) 3.94 µM | GI50 (EKVX NSCLC) 74 µM | GI50 (RXF 393 renal) 2.83 µM | GI50 (HOP-62 NSCLC) 18.2 µM | GI50 (KM12 colon) 2.3 µM | GI50 (U251 CNS) 2.98 µM | GI50 (HT29 colon) 3.71 µM | GI50 (HCC-2998 colon) 8.59 µM | GI50 (NCI-H23 lung) 15.8 µM | GI50 (COLO 205 colon) 8.49 µM | GI50 (OVCAR-4 ovarian) 9.07 µM | GI50 (SF-268 CNS) 3.21 µM | GI50 (A498 renal) 16.3 µM | GI50 (HCT-15 colon) 2.93 µM | GI50 (SW-620 colon) 3.79 µM | GI50 (DU-145 prostate) 1.86 µM | GI50 (OVCAR-3 ovarian) 3.19 µM
8.44 µM: TGI (RXF 393 renal)
55.2 µM: TGI (HOP-62 NSCLC)
4.92 µM: TGI (HL-60(TB) leukemia)
9.13 µM: TGI (U251 CNS)
12.2 µM: TGI (MOLT-4 leukemia)
6.26 µM: TGI (K-562 leukemia)
4.3 µM: TGI (CCRF-CEM leukemia)
36.9 µM: TGI (HOP-92 NSCLC)
